Laboratory results reported in patent US12427151B2, “Compositions and method of treating cancer” (The Regents of the University of California, priority 2017, dated 2025).

Test system: L5178Y tk+/- mouse lymphoma cells
Experiment: Mutagenic activity at the thymidine kinase (tk) locus
Type: cell-based
Conditions: compared to vehicle
Experimental: Because some nucleobase analogs exert mutagenic activities due to their misrecognition of wrong bases, mutagenic activity of 6-HAP was determined by detecting mutagenic events at the thymidine kinase (tk) locus of L5178Y tk^+/− mouse lymphoma cells.

COS(C)(=O)=O [methyl methanesulfonate, reference compound]
mutagenic activity, mutation frequency at tk locus: did induce a high mutation frequency
